Literature values in PubChem BioAssay AID1259409 (Chemical Carcinogenesis Research Information System (CCRIS), 2018).
“And” between values parts separate entries of the source, which are not always exact repeats. Identical values can stand only once.

Tested on: rodent chemically induced tumor inhibition, incidence and multiplicity
Test: CCRIS tumor inhibitor studies
Conditions: Carcinogen: NONE USED, Route [Inhibitor]: ORAL, Promoter: NONE USED

CC(N)Cc1ccccc1 (stereo not given)
tumour outcome (control, treated, inhibition, significance) (Dose [Inhibitor]: 0, 20 PPM IN FEED FOR 103 WK (STUDY DURATION: 2 YR), Species: MOUSE, Strain/Sex: B6C3F1/FEMALE, Target Tissue: Type of Lesion: HARDERIAN GLAND: ADENOMA): 5/50 (10%), 2/50 (4%), 60%, not calculated
tumour outcome (control, treated, inhibition, significance) (Dose [Inhibitor]: 0, 20 PPM IN FEED FOR 103 WK (STUDY DURATION: 2 YR), Species: MOUSE, Strain/Sex: B6C3F1/FEMALE, Target Tissue: Type of Lesion: LIVER: ADENOMA): 5/50 (10%), 1/50 (2%), 80%, not calculated
tumour outcome (control, treated, inhibition, significance) (Dose [Inhibitor]: 0, 20 PPM IN FEED FOR 103 WK (STUDY DURATION: 2 YR), Species: MOUSE, Strain/Sex: B6C3F1/FEMALE, Target Tissue: Type of Lesion: LUNG: ADENOMA OR CARCINOMA): 8/50 (16%), 6/50 (12%), 25%, not calculated
tumour outcome (control, treated, inhibition, significance) (Dose [Inhibitor]: 0, 20 PPM IN FEED FOR 103 WK (STUDY DURATION: 2 YR), Species: MOUSE, Strain/Sex: B6C3F1/FEMALE, Target Tissue: Type of Lesion: LUNG: ADENOMA): 7/50 (14%), 4/50 (8%), 43%, not calculated
tumour outcome (control, treated, inhibition, significance) (Dose [Inhibitor]: 0, 20 PPM IN FEED FOR 103 WK (STUDY DURATION: 2 YR), Species: MOUSE, Strain/Sex: B6C3F1/MALE, Target Tissue: Type of Lesion: HARDERIAN GLAND: ADENOMA): 4/50 (8%), 2/50 (4%), 50%, not calculated
tumour outcome (control, treated, inhibition, significance) (Dose [Inhibitor]: 0, 20 PPM IN FEED FOR 103 WK (STUDY DURATION: 2 YR), Species: MOUSE, Strain/Sex: B6C3F1/MALE, Target Tissue: Type of Lesion: LIVER: ADENOMA OR CARCINOMA): 14/50 (28%), 12/50 (24%), 15%, not calculated
tumour outcome (control, treated, inhibition, significance) (Dose [Inhibitor]: 0, 20 PPM IN FEED FOR 103 WK (STUDY DURATION: 2 YR), Species: MOUSE, Strain/Sex: B6C3F1/MALE, Target Tissue: Type of Lesion: LIVER: ADENOMA): 10/50 (20%), 7/50 (14%), 30%, not calculated
tumour outcome (control, treated, inhibition, significance) (Dose [Inhibitor]: 0, 20 PPM IN FEED FOR 103 WK (STUDY DURATION: 2 YR), Species: MOUSE, Strain/Sex: B6C3F1/MALE, Target Tissue: Type of Lesion: LIVER: CARCINOMA): 4/50 (8%), 6/50 (12%), -50%, not calculated
tumour outcome (control, treated, inhibition, significance) (Dose [Inhibitor]: 0, 20 PPM IN FEED FOR 103 WK (STUDY DURATION: 2 YR), Species: MOUSE, Strain/Sex: B6C3F1/MALE, Target Tissue: Type of Lesion: LUNG: ADENOMA): 6/50 (12%), 2/50 (4%), 67%, not calculated
tumour outcome (control, treated, inhibition, significance) (Dose [Inhibitor]: 0, 20 PPM IN FEED FOR 103 WK (STUDY DURATION: 2 YR), Species: RAT, Strain/Sex: F344/FEMALE, Target Tissue: Type of Lesion: ANTERIOR PITUITARY GLAND: ADENOMA): 3/50 (62%), 24/48 (50%), 19%, not calculated
tumour outcome (control, treated, inhibition, significance) (Dose [Inhibitor]: 0, 20 PPM IN FEED FOR 103 WK (STUDY DURATION: 2 YR), Species: RAT, Strain/Sex: F344/FEMALE, Target Tissue: Type of Lesion: MAMMARY GLAND: FIBROADENOMA): 21/50 (42%), 11/50 (22%), 48%, not calculated
tumour outcome (control, treated, inhibition, significance) (Dose [Inhibitor]: 0, 20 PPM IN FEED FOR 103 WK (STUDY DURATION: 2 YR), Species: RAT, Strain/Sex: F344/FEMALE, Target Tissue: Type of Lesion: UTERUS: ENDOMETRIAL STROMA POLYP): 10/50 (20%), 6/50 (12%), 40%, not calculated
tumour outcome (control, treated, inhibition, significance) (Dose [Inhibitor]: 0, 20 PPM IN FEED FOR 103 WK (STUDY DURATION: 2 YR), Species: RAT, Strain/Sex: F344/MALE, Target Tissue: Type of Lesion: ADRENAL GLAND: PHEOCHROMOCYTOMA): 23/49 (47%), 15/44 (34%), 28%, not calculated
tumour outcome (control, treated, inhibition, significance) (Dose [Inhibitor]: 0, 20 PPM IN FEED FOR 103 WK (STUDY DURATION: 2 YR), Species: RAT, Strain/Sex: F344/MALE, Target Tissue: Type of Lesion: ANTERIOR PITUITARY GLAND: ADENOMA): 15/49 (31%), 15/48 (31%), 0%, not significant
tumour outcome (control, treated, inhibition, significance) (Dose [Inhibitor]: 0, 100 PPM IN FEED FOR 103 WK (STUDY DURATION: 2 YR), Species: MOUSE, Strain/Sex: B6C3F1/FEMALE, Target Tissue: Type of Lesion: ANTERIOR PITUITARY GLAND: ADENOMA): 12/49 (24%), 6/49 (12%), 50%, not calculated and 12/49 (24%), 1/46 (2%), 92%, p<0.01
tumour outcome (control, treated, inhibition, significance) (Dose [Inhibitor]: 0, 100 PPM IN FEED FOR 103 WK (STUDY DURATION: 2 YR), Species: MOUSE, Strain/Sex: B6C3F1/FEMALE, Target Tissue: Type of Lesion: HARDERIAN GLAND: ADENOMA): 5/50 (10%), 0/47 (0%), 100%, p<0.05
tumour outcome (control, treated, inhibition, significance) (Dose [Inhibitor]: 0, 100 PPM IN FEED FOR 103 WK (STUDY DURATION: 2 YR), Species: MOUSE, Strain/Sex: B6C3F1/FEMALE, Target Tissue: Type of Lesion: LUNG: ADENOMA OR CARCINOMA): 8/50 (16%), 1/47 (2%), 88%, p<0.01
tumour outcome (control, treated, inhibition, significance) (Dose [Inhibitor]: 0, 100 PPM IN FEED FOR 103 WK (STUDY DURATION: 2 YR), Species: MOUSE, Strain/Sex: B6C3F1/FEMALE, Target Tissue: Type of Lesion: LUNG: ADENOMA): 7/50 (14%), 1/47 (2%), 86%, p<0.05
tumour outcome (control, treated, inhibition, significance) (Dose [Inhibitor]: 0, 100 PPM IN FEED FOR 103 WK (STUDY DURATION: 2 YR), Species: MOUSE, Strain/Sex: B6C3F1/MALE, Target Tissue: Type of Lesion: LIVER: ADENOMA OR CARCINOMA): 14/50 (28%), 2/50 (4%), 86%, p<0.01
tumour outcome (control, treated, inhibition, significance) (Dose [Inhibitor]: 0, 100 PPM IN FEED FOR 103 WK (STUDY DURATION: 2 YR), Species: MOUSE, Strain/Sex: B6C3F1/MALE, Target Tissue: Type of Lesion: LIVER: ADENOMA): 10/50 (20%), 1/50 (2%), 90%, p<0.01
tumour outcome (control, treated, inhibition, significance) (Dose [Inhibitor]: 0, 100 PPM IN FEED FOR 103 WK (STUDY DURATION: 2 YR), Species: MOUSE, Strain/Sex: B6C3F1/MALE, Target Tissue: Type of Lesion: LIVER: CARCINOMA): 4/50 (8%), 1/50 (2%), 75%, not calculated
tumour outcome (control, treated, inhibition, significance) (Dose [Inhibitor]: 0, 100 PPM IN FEED FOR 103 WK (STUDY DURATION: 2 YR), Species: MOUSE, Strain/Sex: B6C3F1/MALE, Target Tissue: Type of Lesion: LUNG: ADENOMA): 6/50 (12%), 3/50 (6%), 50%, not calculated
tumour outcome (control, treated, inhibition, significance) (Dose [Inhibitor]: 0, 100 PPM IN FEED FOR 103 WK (STUDY DURATION: 2 YR), Species: RAT, Strain/Sex: F344/FEMALE, Target Tissue: Type of Lesion: ANTERIOR PITUITARY GLAND: ADENOMA): 31/50 (62%), 19/50 (38%), 39%, p<0.05
tumour outcome (control, treated, inhibition, significance) (Dose [Inhibitor]: 0, 100 PPM IN FEED FOR 103 WK (STUDY DURATION: 2 YR), Species: RAT, Strain/Sex: F344/FEMALE, Target Tissue: Type of Lesion: MAMMARY GLAND: FIBROADENOMA): 21/50 (42%), 2/50 (4%), 90%, p<0.01
tumour outcome (control, treated, inhibition, significance) (Dose [Inhibitor]: 0, 100 PPM IN FEED FOR 103 WK (STUDY DURATION: 2 YR), Species: RAT, Strain/Sex: F344/FEMALE, Target Tissue: Type of Lesion: UTERUS: ENDOMETRIAL STROMA POLYP): 10/50 (20%), 3/50 (6%), 70%, p<0.05
tumour outcome (control, treated, inhibition, significance) (Dose [Inhibitor]: 0, 100 PPM IN FEED FOR 103 WK (STUDY DURATION: 2 YR), Species: RAT, Strain/Sex: F344/MALE, Target Tissue: Type of Lesion: ADRENAL GLAND: PHEOCHROMOCYTOMA): 23/49 (47%), 7/50 (14%), 70%, p<0.01
tumour outcome (control, treated, inhibition, significance) (Dose [Inhibitor]: 0, 100 PPM IN FEED FOR 103 WK (STUDY DURATION: 2 YR), Species: RAT, Strain/Sex: F344/MALE, Target Tissue: Type of Lesion: ANTERIOR PITUITARY GLAND: ADENOMA): 15/49 (31%), 9/49 (18%), 42%, not calculated
tumour outcome (control, treated, inhibition, significance) (Dose [Inhibitor]: 0, 100 PPM IN FEED FOR 103 WK (STUDY DURATION; 2 YR), Dose [Inhibitor]: 0, 100 PPM IN FEED FOR 103 WK (STUDY DURATION; 2 YR), Species: MOUSE, Strain/Sex: B6C3F1/MALE, Target Tissue: Type of Lesion: HARDERIAN GLAND: ADENOMA): 4/50 (8%), 0/50 (0%), 100%, not calculated
tumour outcome (control, treated, inhibition, significance) (Dose [Inhibitor]: O, 20 PPM IN FEED FOR 103 WK (STUDY DURATION: 2 YR), Species: MOUSE, Strain/Sex: B6C3F1/MALE, Target Tissue: Type of Lesion: LUNG: ADENOMA OR CARCINOMA): 8/50 (16%), 3/50 (6%), 63%, not calculated
tumour outcome (control, treated, inhibition, significance) (Dose [Inhibitor]: O, 100 PPM IN FEED FOR 103 WK (STUDY DURATION: 2 YR), Species: MOUSE, Strain/Sex: B6C3F1/MALE, Target Tissue: Type of Lesion: LUNG: ADENOMA OR CARCINOMA): 8/50 (16%), 4/50 (8%), 50%, not calculated
